Results taken from ChEMBL document CHEMBL1152100, “Enzymatic synthesis of sialyl Lex and derivatives based on a recombinant fucosyltransferase” (Bioorg Med Chem Lett, 1991).

Each molecule was assayed against T1, Alpha-(1,3)-fucosyltransferase 10 (Homo sapiens) (UniProt Q6P4F1) (assay: (§1) Acceptor substrate specificity toward Fucosyltransferase for the galactosides of GlcNAc with beta 1,3 or beta 1,4-linkages).
T1 sequence (whole entry): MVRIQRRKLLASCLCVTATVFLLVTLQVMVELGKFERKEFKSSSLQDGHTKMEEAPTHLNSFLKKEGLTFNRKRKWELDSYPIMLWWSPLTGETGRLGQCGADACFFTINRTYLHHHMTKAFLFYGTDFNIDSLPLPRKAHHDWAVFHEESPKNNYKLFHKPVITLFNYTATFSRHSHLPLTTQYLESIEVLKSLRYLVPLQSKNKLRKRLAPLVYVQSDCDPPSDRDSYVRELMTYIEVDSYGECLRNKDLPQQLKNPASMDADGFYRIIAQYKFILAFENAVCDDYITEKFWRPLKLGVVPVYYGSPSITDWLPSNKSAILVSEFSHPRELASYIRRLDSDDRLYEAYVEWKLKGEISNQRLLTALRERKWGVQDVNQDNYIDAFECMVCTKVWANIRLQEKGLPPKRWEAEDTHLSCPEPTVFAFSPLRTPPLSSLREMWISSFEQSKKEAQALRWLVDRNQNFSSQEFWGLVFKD

Row | Molecule | Relative activity
1 | O=C[C@H](O)[C@@H](O)[C@@H](O)[C@H](O)CO | 6
2 | OC[C@H]1OC(O)[C@H](O)[C@@H](O)[C@@H]1O (stereo not given in full) | 5
3 | OC[C@@H]1OC(O)[C@@H](O)[C@H](O)[C@@H]1O (stereo not given in full) | 7
4 | C[C@@H]1O[C@@H](O[C@@H]2[C@H](O[C@H]3[C@H](O)[C@H](O)[C@@H](O)O[C@H]3CO)O[C@@H](CO)[C@H](O)[C@@H]2O)[C@@H](O)[C@@H](O)[C@@H]1O | 250
5 | OC[C@@H]1O[C@@H](O[C@H]2[C@H](O)[C@H](O)[C@H](O)S[C@H]2CO)[C@@H](O)[C@@H](O)[C@H]1O | 310
6 | CC(=O)N[C@H]1[C@@H](O[C@@H]2O[C@@H](CO)[C@H](O)[C@H](O)[C@@H]2O)[C@H](O)[C@H](CO)O[C@H]1O | 580
7 | OC[C@H]1NC[C@H](O)[C@@H](O)[C@@H]1O | 5
8 | OC[C@H]1OC=C[C@@H](O)[C@H]1O | 2
9 | CC(=O)N[C@H]1C(O)O[C@H](CO)[C@@H](O)[C@@H]1O (stereo not given in full) | 3
10 | OC[C@@H]1OC(O)[C@@H](O)[C@H](O)[C@H]1O (stereo not given in full) | 3
11 | CC(=O)N[C@@H]1[C@H](OC[C@@H]2O[C@@H](O[C@H]3[C@H](O)[C@H](O)C(O)O[C@H]3CO)[C@@H](O)[C@@H](O)[C@H]2O)O[C@@H](CO)[C@@H](O)[C@@H]1O (stereo not given in full) | 13
12 | C=CCO[C@@H]1O[C@@H](CO)[C@@H](O)[C@H](O)[C@@H]1O | < 1
13 | CC(=O)N[C@@H]1[C@@H](O)[C@H](O[C@@H]2O[C@H](CO)[C@H](O)[C@H](O)[C@H]2O)[C@@H](CO)O[C@H]1O | 27
14 | CC(=O)N[C@@H]1[C@H](O[C@H]2[C@H](O)[C@H](NC(C)=O)C(O)O[C@H]2CO)O[C@@H](CO)[C@@H](O)[C@@H]1O (stereo not given in full) | 23
15 | OC[C@H]1OC=C[C@@H](O)[C@@H]1O | 7
16 | CC(=O)N[C@H]1C(O)O[C@H](CO)[C@H](O)[C@@H]1O (stereo not given in full) | 4
17 | OC[C@H]1S[C@H](O)[C@H](O)[C@@H](O)[C@@H]1O | 7
18 | CC(=O)N[C@H]1[C@H]([C@H](O)[C@H](O)CO)O[C@@](O[C@@H]2[C@H](O)[C@H](O[C@H]3[C@H](O)[C@H](NC(C)=O)C(O)O[C@H]3CO)O[C@@H](CO)[C@@H]2O)(C(=O)O)C[C@H]1O (stereo not given in full) | 60

What follows are molecules tested against Alpha-(1,3)-fucosyltransferase 10 (Homo sapiens) (UniProt Q6P4F1) (assay: as §1).

Row | Molecule | Relative activity
19 | LACTOSE, ANHYDROUS | 120

The molecules below were run against T1, Alpha-(1,3)-fucosyltransferase 10 (Homo sapiens) (assay: Compound was evaluated for acceptor substrate specificity toward Fucosyltransferase for the galactosides of GlcNAc with beta 1,3 or beta 1,4-linkages when applied 2 uM of GDP-Fuc consumed per hr.).

Row | Molecule | Relative activity
20 | CC(=O)N[C@@H]1[C@@H](O)[C@H](O[C@@H]2O[C@H](CO)[C@H](O)[C@H](O)[C@H]2O)[C@@H](CO)O[C@H]1O | 100
